Test results from patent US20250051282A1, “COMPOUNDS FOR TREATING POLYQ-RELATED NEURODEGENERATIVE DISORDERS” (HANGZHOU JIJING PHARMACEUTICAL TECHNOLOGY LIMITED, priority 2021, published 2025).

Test system: ATXN1(60Q)
Assay: Daoy-ATXN1(60Q)-mATXN1 MSD assay (CTG normalized)
Format: cell-based
Conditions: Daoy-Flag-ATXN1(60Q) stable cells, compound added Day 2, lysis Day 3, final DMSO 0.3%, read-out: Daoy-ATXN1(60Q)-mATXN1 MSD (CTG normalized) DC50
Method: Protocol for MSD Assay: Daoy-ATXN1(600)-mATXN1 MSD (CTG normalized)
The Flag-ATXN1(60Q) gene is synthesized by Genescript and cloned into the pLVX-IRES-Puro vector (Takarabio, catalog No. 632183) using EcoRI/BamHI restriction enzyme sites. Lentivirus is made by transfecting HEK293T cells with pLVX-IRES-Puro-Flag-ATXN1(60Q) plasmids and packaging plasmids psPAX2 and pMD2.G at 4:3:1 ratio (8:6:[…], respectively) in 10 cm plates, and are harvested at 48 hours post transfection. Daoy cells (ATCC catalog No. HTB-186) seeded in T25 flasks are infected with the lentivirus in the presence of 8 µg/mL polybrene (Sigma, TR-1003-G) for 24 hours. 48 hours post infection, the cells are selected using 0.5 […] (Sigma, P8833) for more than 5 days until all cells in the uninfected group die. The expression of Flag-ATXN1(60Q) is verified by anti-Flag immunoblot using anti-Flag antibody (Sigma, F1804-200UG, M2).
As explained above, Daoy-Flag-ATXN1(60Q) cells are prepared as a stable cell line by infecting Daoy cells with lentivirus. The media for the cells is EMEM (ATTC, 30-2008) with 10% fetal bovin serum (FBS).
On Day 1, the Daoy-Flag-ATXN1(60Q) cells are seeded in a 96 well plate at a concentration of 1.2×10^4/well. On Day 2, the cells are treated with test compounds at test concentrations (compounds are serially diluted with DMSO to obtain test concentrations, such that final DMSO concentration is 0.3%). On Day 3, the cells are washed with 100 μL of phosphate-buffered saline (PBS) per well, and then 30 μL of radioimmuno-precipitation assay (RIPA) buffer (with protease and phosphatase inhibitor cocktail) is added to each well.
The well plate is then cooled on ice for 30 minutes in order to complete lysis, and MSD samples are prepared using 10 μL of Daoy-Flag-ATXN1-60Q lysate and 90 μL of RIPA buffer with gentle mixing. Each MSD sample has a total volume of 100 μL, and is used immediately or stored at −80° C.
A standard Meso Scale Discovery (MSD) plate is coated with anti-Flag (Sigma, F1804-200UG, M2) in PBS at 1:500 dilution ratio and 40 µL/well, and is incubated at 4° C. overnight with shaking at 600 rpm. Then, the MSD plate is washed 3 times with 150 µL/well of 1X TBST (tris-buffered saline (TBS) with Tween 20) buffer, and the MSD plate is blocked with 150 μL of blocking buffer [3% Blocker A in 1X TBST, (3 g Blocker A per 100 mL 1X TBST)] and shaken for 1 hour at 600 rpm at room temperature. Then, the MSD plate is washed three times with 150 μL/well of 1X TBST. Next, the diluted lysate samples (from Sample Preparation above) are added to the MSD plate at 25 μL/well, and the MSD plate is shaken at 600 rpm for 1 hour at room temperature. Then the MSD plate is washed 3 times with 150 μL/well of 1X TBST.
Detection antibody anti-Ataxin 1 (G-bio, ITA1916) (1:500), which is prepared in antibody detection buffer (1% Blocker A in 1X TBST), is then added to the MSD plate at 25 µL/well, and the MSD plate is shaken at 600 rpm for 1 hour at room temperature. The MSD plate is then washed three times with 150 μL/well of 1X TBST. Next, a secondary detection antibody, Goat anti-rabit (GAR) with SULFO-TAG (1:500), which is prepared in antibody detection buffer (1% Blocker A in 1X TBST), is added at 25 μL/well and the MSD plate is shaken at 600 rpm for 1 hour at room temperature. Then the MSD plate is washed 3 times with 150 μL/well of 1X TBST, and 2X MSD reading buffer is added at 150 μL/well (diluted from 4x MSD reading buffer with water). Finally, the signal from each well is measured on the MSD Meso QuickPle SQ120 Plate Reader. DC50 data is calculated using collaborate drug discovery (CDD) software (https://www.collaborativedrug.com/about).

With `O=C1Nc2ccc(Br)cc2/C1=C(\c1cccc(O)c1)N1CCCCC1` [Example 12, (Z)-5-bromo-3-((3-hydroxyphenyl) (piperidin-1-yl)methylene) indolin-2-one] as the molecule, how does the DC50 read?
Its DC50 is over 30 µM.

How did the DC50 turn out when `C/C(=C1\C(=O)Nc2ccc(Br)cc21)c1cccc(O)c1` [Example 85, (E)-5-bromo-3-(1-(3-hydroxyphenyl)ethylidene)indolin-2-one] was run?
Its DC50 is 10 to 30 µM.

Which DC50 does the source give for `CC(=C1C(=O)Nc2ccc(C(F)(F)F)cc21)c1cccc(O)c1` [Example 95, 3-(1-(3-Hydroxyphenyl)ethylidene)-5-(trifluoromethyl) indolin-2-one] here?
The DC50 was under 10 µM.

Which DC50 does the source give for `Nc1cccc(/C(Nc2ccnnc2)=C2/C(=O)Nc3ccc(Br)cc32)c1` [Example 60, (Z)-3-((3-aminophenyl) (pyridazin-4-ylamino)methylene)-5-bromo indolin-2-one] here?
The DC50 was under 10 µM.

For `O=C1Nc2ccc(Br)cc2/C1=C(/Nc1cncs1)c1ccccc1` [Example 49, (Z)-5-bromo-3-(phenyl(thiazol-5-ylamino)methylene)indolin-2-one], which DC50 is on record?
The DC50 was over 30 µM.

How did the DC50 turn out when `O=C1Nc2ccc(Br)cc2/C1=C(/Nc1ccnnc1)c1ccccc1` [Example 39, (Z)-5-bromo-3-(phenyl(pyridazin-4-ylamino)methylene) indolin-2-one] was run?
The DC50 was under 10 µM.

For `O=C1Nc2ccc(Br)cc2/C1=C(/Nc1cccnc1)c1cccc(O)c1` [Example 66, (Z)-5-bromo-3-((3-hydroxyphenyl) (pyridin-3-ylamino)methylene)indolin-2-one], which DC50 is on record?
Its DC50 is under 10 µM.

How did the DC50 turn out when `O=C1Nc2ccc(Br)cc2/C1=C(/NC1CNC1)c1cccc(F)c1` [Example 37, (Z)-3-((azetidin-3-ylamino)(3-fluorophenyl)methylene)-5-bromoindolin-2-one] was run?
The DC50 was under 10 µM.

For `CCC/C(=C1\C(=O)Nc2ccc(Br)cc21)c1cccc(O)c1` [Example 100, (E)-5-bromo-3-(1-(3-hydroxyphenyl)butylidene)indolin-2-one], which DC50 is on record?
Its DC50 is under 10 µM.

`C/C(=C1\C(=O)Nc2ccc(Br)cc21)c1ccc(F)c(O)c1` [Example 92, (E)-5-bromo-3-(1-(4-fluoro-3-hydroxyphenyl)ethylidene) indolin-2-one] was tested. Which DC50 did it give?
The DC50 was under 10 µM.

`O=C1Nc2ccc(Br)cc2/C1=C(/Nc1ccnnc1)c1cccc(C(F)F)c1` [Example 41, (Z)-5-bromo-3-((3-(difluoromethyl)phenyl)(pyridazin-4-ylamino)methylene) indolin-2-one] was tested. Which DC50 did it give?
The DC50 was under 10 µM.

With `Cn1cc(N/C(=C2\C(=O)Nc3ccc(Br)cc32)c2cccc(O)c2)cn1` [Example 71, (Z)-5-bromo-3-((3-hydroxyphenyl)((1-methyl-1H-pyrazol-4-yl)amino)methylene)indolin-2-one] as the molecule, how does the DC50 read?
The DC50 was under 10 µM.

Which DC50 does the source give for `O=C1Nc2ccc(Br)cc2/C1=C(/Nc1cnnc(Cl)c1)c1ccccc1` [Example 47, (Z)-5-bromo-3-((6-chloropyridazin-4-ylamino)(phenyl)methylene)indolin-2-one] here?
Its DC50 is over 30 µM.

How did the DC50 turn out when `C/C(=C1\C(=O)Nc2ccc(Br)cc21)c1ccc2[nH]c(=O)oc2c1` [Example 88, (E)-6-(1-(5-bromo-2-oxoindolin-3-ylidene)ethyl)benzo[d]oxazol-2(3H)-one] was run?
The DC50 was over 30 µM.

Which DC50 does the source give for `CN1CC(N/C(=C2\C(=O)Nc3ccc(Br)cc32)c2cccc(O)c2)C1` [Example 9, (Z)-5-bromo-3-((3-hydroxyphenyl)((1-methylazetidin-3-yl)amino)methylene) indolin-2-one] here?
The DC50 was under 10 µM.

`O=C1Nc2ccc(Br)cc2/C1=C(/NC1CCNCC1)c1cccc(O)c1` [Example 25, (Z)-5-bromo-3-((3-hydroxyphenyl) (piperidin-4-ylamino)methylene) indolin-2-one] was tested. Which DC50 did it give?
Its DC50 is under 10 µM.

Which DC50 does the source give for `CC(=O)NCCOCCOCCOCCN/C(=C1\C(=O)Nc2ccc(Br)cc21)c1cccc(O)c1` [Example 61, (Z)—N-(1-(5-bromo-2-oxoindolin-3-ylidene)-1-(3-hydroxyphenyl)-5,8,11-trioxa-2-azatridecan-13-yl)acetamide] here?
The DC50 was 10 to 30 µM.

For `NCCN/C(=C1\C(=O)Nc2ccc(Br)cc21)c1cc(N)ccc1F` [Example 32, (Z)-3-((5-amino-2-fluorophenyl)((2-aminoethyl)amino)methylene)-5-bromo indolin-2-one], which DC50 is on record?
Its DC50 is under 10 µM.

How did the DC50 turn out when `O=C1Nc2ccc(Br)cc2/C1=C(/Nc1c[nH]nc1Cl)c1ccccc1` [Example 54, (Z)-5-bromo-3-((3-chloro-1H-pyrazol-4-ylamino)(phenyl)methylene)indolin-2-one] was run?
The DC50 was over 30 µM.

Which DC50 does the source give for `O=C1Nc2ccc(Br)cc2/C1=C(/NCCCF)c1cccc(C(F)F)c1` [Example 20, (Z)-5-bromo-3-((3-(difluoromethyl)phenyl)((3-fluoropropyl)amino)methylene) indolin-2-one] here?
Its DC50 is under 10 µM.

Which DC50 does the source give for `CN1CCC(N/C(=C2\C(=O)Nc3ccc(Br)cc32)c2cccc(O)c2)CC1` [Example 15, (Z)-5-bromo-3-((3-hydroxyphenyl)((1-methylpiperidin-4-yl)amino)methylene) indolin-2-one] here?
The DC50 was under 10 µM.

With `O=C1Nc2ccc(Br)cc2/C1=C(/Nc1cnn(CCO)c1)c1ccccc1` [Example 53, (Z)-5-bromo-3-(((1-(2-hydroxyethyl)-1H-pyrazol-4-yl)amino)(phenyl)methylene)indolin-2-one] as the molecule, how does the DC50 read?
The DC50 was 10 to 30 µM.

With `C/C(=C1\C(=O)Nc2ccc(Br)cc21)c1cc(O)c(O)c(Br)c1` [Example 98, 5-Bromo-3-(1-(3-bromo-4,5-dihydroxyphenyl)ethylidene)indolin-2-one] as the molecule, how does the DC50 read?
The DC50 was over 30 µM.

`Nc1cccc(/C(NC2CNC2)=C2/C(=O)Nc3ccc(Br)cc32)c1` [Example 33, (Z)-3-((3-aminophenyl)(azetidin-3-ylamino)methylene)-5-bromoindolin-2-one] was tested. Which DC50 did it give?
The DC50 was under 10 µM.

Which DC50 does the source give for `COc1cc(/C(Nc2ccnnc2)=C2/C(=O)Nc3ccc(Br)cc32)ccc1N` [Example 62, (Z)-3-((4-amino-3-methoxyphenyl)(pyridazin-4-ylamino)methylene)-5-bromoindolin-2-one] here?
Its DC50 is over 30 µM.

Which DC50 does the source give for `O=C1Nc2ccc(Br)cc2/C1=C(/Nc1cnn(C(F)F)c1)c1ccccc1` [Example 55, (Z)-5-bromo-3-(((1-(difluoromethyl)-1H-pyrazol-4-yl)amino)(phenyl)methylene)indolin-2-one] here?
The DC50 was over 30 µM.

`O=C1Nc2ccc(Br)cc2/C1=C(/NC1CNC1)c1ccccc1` [Example 35, (Z)-3-((azetidin-3-ylamino)(phenyl)methylene)-5-bromo indolin-2-one] was tested. Which DC50 did it give?
Its DC50 is under 10 µM.

Which DC50 does the source give for `N/C(=C1\C(=O)Nc2ccc(Br)cc21)c1cncc(O)c1` [Example 84, (Z)-3-(amino(5-hydroxypyridin-3-yl)methylene)-5-bromoindolin-2-one] here?
Its DC50 is under 10 µM.

`Cn1cc(N/C(=C2\C(=O)Nc3ccc(Br)cc32)c2ccccc2)cn1` [Example 22, (Z)-5-bromo-3-(((1-methyl-1H-pyrazol-4-yl)amino)(phenyl)methylene)indolin-2-one] was tested. Which DC50 did it give?
Its DC50 is 10 to 30 µM.

With `Cn1cc(N/C(=C2\C(=O)Nc3ccc(Br)cc32)c2cccc(F)c2)cn1` [Example 21, (Z)-5-bromo-3-((3-fluorophenyl)((1-methyl-1H-pyrazol-4-yl)amino)methylene) indolin-2-one] as the molecule, how does the DC50 read?
The DC50 was over 30 µM.

Which DC50 does the source give for `O=C1Nc2ccc(Br)cc2/C1=C(/Nc1ccnnc1)c1cccc(F)c1` [Example 40, (Z)-5-bromo-3-((3-fluorophenyl)(pyridazin-4-ylamino)methylene) indolin-2-one] here?
The DC50 was under 10 µM.

Which DC50 does the source give for `O=C1Nc2ccc(Br)cc2/C1=C(/Nc1ccnnc1)c1cccc(O)c1` [Example 38, (Z)-5-bromo-3-((3-hydroxyphenyl)(pyridazin-4-ylamino)methylene) indolin-2-one] here?
Its DC50 is under 10 µM.
